How the values were obtained:
Experiment in all cases: relative viability (nuclei count vs DMSO), 5 days (fraction); higher = more cells survive
[1] = compound: CC1=C(C(=NN1)C)CC2=C(C3=C(S2)N(C(=O)N(C3=O)C)CC(C)C)C(=O)N4C[C@@H](CO4)O + Nc1ncn([C@H]2C[C@H](O)[C@@H](CO)O2)c(=O)n1 [Decitabine] (partner 2 µM)
Summary of the method: (§1)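 Five library-drug doses in √10 steps were combined with a fixed anchor-drug dose, or a single drug was given alone, by pin tool to lung cancer cell lines in 1536-well plates the day after seeding. Nuclei were stained and counted after 5 days. Relative viability is the nuclei count in treated wells over that in vehicle wells, taken as the median of duplicate plates.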

[2] = compound: CC1=C(C(=NN1)C)CC2=C(C3=C(S2)N(C(=O)N(C3=O)C)CC(C)C)C(=O)N4C[C@@H](CO4)O + CC(=O)Nc1cccc(-n2c(=O)n(C3CC3)c(=O)c3c(Nc4ccc(I)cc4F)n(C)c(=O)c(C)c32)c1 [Trametinib] (partner 0.02 µM)
Summary of the method: as §1

[3] = compound: CC1=C(C(=NN1)C)CC2=C(C3=C(S2)N(C(=O)N(C3=O)C)CC(C)C)C(=O)N4C[C@@H](CO4)O + N=C(N)NC(=N)NCCc1ccccc1 [Phenformin] (partner 250 µM)
Summary of the method: as §1

IDH-C35 + Navitoclax = compound: Cc1ccccc1C(C(=O)NC1CCCCC1)N(C(=O)Cn1ccnc1C)c1cccc(F)c1 [IDH-C35] + CC1(C)CCC(c2ccc(Cl)cc2)=C(CN2CCN(c3ccc(C(=O)NS(=O)(=O)c4ccc(N[C@H](CCN5CCOCC5)CSc5ccccc5)c(S(=O)(=O)C(F)(F)F)c4)cc3)CC2)C1 [Navitoclax] (partner 0.5 µM)
Summary of the method: as §1

| Cell Line | relative viability ([1]; first compound 0.0025 µM) | relative viability ([1]; first compound 0.007906 µM) | relative viability ([1]; first compound 0.025 µM) | relative viability ([1]; first compound 0.07906 µM) | relative viability ([1]; first compound 0.25 µM) | relative viability ([2]; first compound 0.0025 µM) | relative viability ([2]; first compound 0.007906 µM) | relative viability ([2]; first compound 0.025 µM) | relative viability ([2]; first compound 0.07906 µM) | relative viability ([2]; first compound 0.25 µM) | relative viability ([3]; first compound 0.0025 µM) | relative viability ([3]; first compound 0.007906 µM) | relative viability ([3]; first compound 0.025 µM) | relative viability ([3]; first compound 0.07906 µM) | relative viability ([3]; first compound 0.25 µM) | relative viability (IDH-C35 + Navitoclax; first compound 0.08 µM) | relative viability (IDH-C35 + Navitoclax; first compound 0.253 µM) | relative viability (IDH-C35 + Navitoclax; first compound 0.8 µM) | relative viability (IDH-C35 + Navitoclax; first compound 2.53 µM) | relative viability (IDH-C35 + Navitoclax; first compound 8 µM) |
| --- | --- | --- | --- | --- | --- | --- | --- | --- | --- | --- | --- | --- | --- | --- | --- | --- | --- | --- | --- | --- |
| NCI-H596 | 1.11 | 1.1 | 1.1 | 0.989 | 1.06 | 0.789 | 0.871 | 0.878 | 0.76 | 0.886 | 0.803 | 0.764 | 0.73 | 0.809 | 1.05 | 1.1 | 1 | 0.925 | 0.867 | 0.962 |
| H3255 | 0.567 | 0.446 | 0.568 | 0.651 | 0.641 | 0.602 | 0.693 | 0.671 | 0.617 | 0.681 | 0.338 | 0.368 | 0.364 | 0.389 | 0.39 | 0.577 | 0.543 | 0.495 | 0.606 | 0.636 |
| NCI-H647 | 0.48 | 0.44 | 0.298 | 0.535 | 0.321 | 0.506 | 0.582 | 0.579 | 0.558 | 0.448 | 0.655 | 0.369 | 0.393 | 0.555 | 0.53 | 1.26 | 1.18 | 0.916 | 1.04 | 1.12 |
| NCI-H2023 | 0.23 | 0.255 | 0.211 | 0.231 | 0.244 | 0.667 | 0.613 | 0.562 | 0.599 | 0.575 | 0.382 | 0.437 | 0.361 | 0.431 | 0.412 | 1.09 | 1.01 | 0.979 | 0.962 | 1.1 |
| NCI-H23 | 0.307 | 0.329 | 0.289 | 0.345 | 0.334 | 0.42 | 0.526 | 0.421 | 0.359 | 0.397 | 0.794 | 0.858 | 0.839 | 0.804 | 0.774 | 0.792 | 0.828 | 0.883 | 0.992 | 0.807 |
| NCI-H1944 | 0.452 | 0.46 | 0.462 | 0.404 | 0.448 | 0.422 | 0.438 | 0.478 | 0.396 | 0.385 | 0.184 | 0.222 | 0.186 | 0.195 | 0.175 | 1.02 | 1.04 | 0.942 | 1.05 | 1.04 |
| NCI-H1793 | 0.295 | 0.517 | 0.471 | 0.449 | 0.524 | 0.378 | 0.435 | 0.392 | 0.455 | 0.36 | 0.211 | 0.213 | 0.138 | 0.138 | 0.135 | 0.549 | 0.446 | 0.444 | 0.456 | 0.608 |
| NCI-H520 | 0.476 | 0.448 | 0.45 | 0.423 | 0.371 | 0.671 | 0.824 | 0.455 | 0.457 | 0.463 | 0.501 | 0.167 | 0.192 | 0.179 | 0.198 | 1.02 | 1.15 | 1.07 | 0.933 | 1.21 |
| NCI-H460 | 0.512 | 0.604 | 0.502 | 0.494 | 0.557 | 0.158 | 0.149 | 0.186 | 0.136 | 0.206 | 0.526 | 0.586 | 0.491 | 0.553 | 0.515 | 1.26 | 1.19 | 1.06 | 1.07 | 1.21 |
| EKVX | 0.365 | 0.311 | 0.309 | 0.267 | 0.369 | 0.397 | 0.339 | 0.353 | 0.246 | 0.372 | 0.241 | 0.224 | 0.233 | 0.243 | 0.227 | 1.17 | 0.911 | 0.899 | 1.01 | 0.897 |
| EPLC-272H | 0.374 | 0.346 | 0.369 | 0.354 | 0.352 | 0.317 | 0.236 | 0.31 | 0.295 | 0.352 | 0.362 | 0.272 | 0.281 | 0.298 | 0.361 | 1.27 | 1.13 | 1.13 |  | 1.07 |
| NCI-H1395 | 0.801 | 0.68 | 0.707 | 0.763 | 0.694 | 1.07 | 0.988 | 0.994 | 1.04 | 1 | 0.336 | 0.316 | 0.298 | 0.314 | 0.312 | 1.14 | 1.05 | 1.49 | 1.08 | 1.16 |
| NCI-H2126 | 0.575 | 0.561 | 0.564 | 0.512 | 0.603 | 0.527 | 0.57 | 0.548 | 0.551 | 0.577 | 0.583 | 0.526 | 0.523 | 0.529 | 0.585 | 0.906 | 0.864 | 0.849 | 0.866 | 0.857 |
| LXF-289 | 0.432 | 0.395 | 0.354 | 0.393 | 0.443 | 0.705 | 0.702 | 0.669 | 0.641 | 0.689 | 0.525 | 0.52 | 0.532 | 0.537 | 0.556 | 0.968 | 0.931 | 0.961 | 0.896 | 0.987 |
| NCI-H2009 | 0.412 | 0.408 | 0.342 | 0.418 | 0.407 | 0.318 | 0.286 | 0.289 | 0.287 | 0.237 | 0.487 | 0.484 | 0.455 | 0.557 | 0.503 | 1.22 | 1.16 | 1.12 | 1.17 | 1.16 |
| NCI-H2405 | 0.686 | 0.746 | 0.752 | 0.738 | 0.739 | 0.689 | 0.627 | 0.618 | 0.673 | 0.692 | 0.348 | 0.286 |  | 0.277 | 0.268 | 0.926 | 0.981 | 0.918 |  | 0.76 |

Source: the supplement of paper PMC10307832
